Laboratory results reported in patent US20250140406A1, “CLASSIFYING TUMORS AND PREDICTING RESPONSIVENESS” (Oncocyte Corporation, priority 2022, published 2025).
Where two headings read alike, the source gives them in different places.

How the values were obtained:
[1] = system: cancer cell lines, DetermaIO classes; assay: Association of PRISM compound sensitivity with DetermaIO (DTIO) cell line classes; format: cell-based
[2] = system: cancer cell lines classified IM, MSL, M; assay: PRISM screen compound sensitivity correlated with IM, MSL and M subtype of cell lines (101 gene signature); format: cell-based
[3] = association of compound sensitivity with DetermaIO classes; test data set
[4] = association of compound sensitivity with DetermaIO classes; training data set
[5] = correlation of PRISM compound sensitivity with DTIO (DetermaIO); test cell set (188 cell lines)
[6] = correlation of PRISM compound sensitivity with DTIO (DetermaIO); training cell set (371 cell lines)
[7] = correlation of PRISM compound sensitivity with IM subtype correlation, test cell set (188 cell lines)
[8] = correlation of PRISM compound sensitivity with M subtype correlation, test cell set (188 cell lines)
[9] = correlation of PRISM compound sensitivity with MSL subtype correlation, test cell set (188 cell lines)
[10] = correlation of PRISM compound sensitivity with DTIO; test cell set
[11] = correlation of PRISM compound sensitivity with DTIO; training cell set
[12] = correlation of compound sensitivity with DetermaIO (DTIO), test set
[13] = correlation of compound sensitivity with DetermaIO (DTIO), training set
[14] = correlation of PRISM compound sensitivity with IM subtype correlation, test cell set
[15] = correlation of PRISM compound sensitivity with M subtype correlation, test cell set
[16] = correlation of PRISM compound sensitivity with MSL subtype correlation, test cell set
[17] = subtype (IM, MSL or M) with which PRISM compound sensitivity is negatively correlated, training cell set, 101 gene signature
[18] = correlation of compound sensitivity with DTIO; test set
[19] = correlation of compound sensitivity with DTIO; training set

Compound | IM Corr test [2, 7] | M Corr test [2, 8] | MSL Corr test [2, 9] | DTIO Corr test [1, 10] | DTIO Corr train [1, 11] | IM Corr test [2, 14] | M Corr test [2, 15] | MSL Corr test [2, 16] | further results
O=C(O)C[C@H](O)C[C@H](O)/C=C/c1c(C2CC2)nc2ccccc2c1-c1ccc(F)cc1 [K75958547] | – | – | – | – | – | – | – | – | DTIO Corr test [1, 3]: −0.0837; DTIO Corr train [1, 4]: −0.04476; TNBCType train ([2]; classification of association of compound sensitivity with IM, MSL and M cell line classes, training data set): MSL
Cc1ccc(CNc2ncnc3ccc(-c4ccc(CO)o4)cc23)o1 [ML167] | −0.07672 | 0.05836 | 0.01781 | – | – | – | – | – | DTIO Corr test [1, 5]: −0.03284; DTIO Corr train [1, 6]: −0.07536
N#Cc1c(Oc2ccc(F)c(NC(=O)Cc3cccc(C(F)(F)F)c3)c2)ccc2nc(NC(=O)C3CC3)sc12 [TAK-632] | – | – | – | 0.2089 | 0.08489 | 0.3042 | −0.2709 | 0.04709 | DTIO Corr test [1, 12]: 0.2089; DTIO Corr train [1, 13]: 0.08489; DTIO Corr test ([1]; correlation of compound sensitivity with DetermaIO (DTIO); test set): 0.2089; DTIO Corr train ([1]; correlation of compound sensitivity with DetermaIO (DTIO); training set): 0.08489
COc1cc2ncnc(Sc3nnc(C)s3)c2cc1OC [SKLB1002] | – | – | – | 0.03788 | 0.02384 | 0.0147 | −0.00342 | −0.05424 | TNBCType train [2, 17]: MSL
O=C(NCCCN1CCCCCC1)C(c1ccccc1)C1CCCCC1 (stereo not drawn) [MR-16728] | −0.01298 | 0.0251 | 0.06487 | 0.04353 | −0.1606 | – | – | – | –
Nc1ncnc2c1c(-c1cnc3[nH]ccc3c1)nn2C1CCCC1 [PP-121] | −0.08606 | 0.07821 | 0.02379 | – | – | – | – | – | DTIO Corr test [1, 5]: −0.08787; DTIO Corr train [1, 6]: −0.1218
CCN(CC)CCCC(C)Nc1nc(C)cc(Nc2ccc3nc(C)cc(N)c3c2)n1 (stereo not drawn) [NSC-23766] | −0.00484 | −0.06657 | 0.1332 | 0.048 | 0.0675 | – | – | – | –
COc1ccc(C2=N[C@@H](c3ccc(Cl)cc3)[C@@H](c3ccc(Cl)cc3)N2C(=O)N2CCNC(=O)C2)c(OC(C)C)c1 [nutlin-3] | 0.06852 | −0.07413 | 0.03536 | 0.1503 | 0.1606 | – | – | – | –
CCCCCCCC/C=C\CCCCCCCC(=O)N[C@@H](CO)Cc1ccc(O)cc1 [OMDM-2] | – | – | – | 0.08864 | 0.00432 | 0.07857 | −0.1315 | −0.1068 | TNBCType train [2, 17]: MSL
COc1ccc(/C=C/CCCCOc2ccc(C(=O)c3cccc(C(=O)O)c3)cc2CCC(=O)O)cc1 [LY223982] | – | – | – | −0.04973 | 0.000351 | 0.01323 | 0.005739 | −0.01914 | TNBCType train [2, 17]: MSL
Cc1ncc(-c2ccnc(Nc3ccc(S(C)(=O)=O)cc3)n2)n1C(C)C [AZD5438] | −0.1498 | 0.0844 | 0.1271 | – | – | – | – | – | DTIO Corr test [1, 5]: −0.1301; DTIO Corr train [1, 6]: −0.08372
CNC(=O)CN(CCN(CCN(CC(=O)[O-])CC(=O)NC)CC(=O)[O-])CC(=O)[O-].[Gd+3] [gadodiamide] | – | – | – | −0.0433 | −0.1128 | −0.07426 | 0.04886 | −0.03759 | –
N[C@@H]1CCCN(c2c(/C=C3\SC(=O)NC3=O)cccc2-c2ccccc2)C1 [AZD1208] | – | – | – | 0.02868 | 0.03472 | 0.06359 | −0.02916 | 0.004575 | –
O=C(CCn1cnc2c(=O)[nH]cnc21)Nc1ccc(C(=O)O)cc1 [leteprinim] | – | – | – | 0.02507 | −0.08293 | 0.08575 | −0.1262 | −0.09795 | TNBCType train [2, 17]: MSL
CNC(=O)c1cnn(-c2nc(N)c3ncn([C@@H]4O[C@H](CO)[C@@H](O)[C@H]4O)c3n2)c1 [regadenoson] | −0.08832 | 0.02954 | −0.05759 | −0.1015 | −0.1586 | – | – | – | –
C#C[C@]1(OC(=O)CCCCCC)CC[C@H]2[C@@H]3CCC4=CC(=O)CC[C@@H]4[C@H]3CC[C@@]21C [norethisterone-enanthate] | – | – | – | – | – | – | – | – | DTIO Corr test [1]: 0.009756; DTIO Corr train [1]: −0.1312; IM Corr test [2]: −0.05873; M Corr test [2]: 0.01774; MSL Corr test [2]: 0.1042
O=C(O)[C@H](O)[C@@H](O)[C@H](O[C@@H]1O[C@H](CO)[C@H](O)[C@H](O)[C@H]1O)[C@H](O)CO [maltobionic-acid] | 0.1078 | −0.08169 | 0.03716 | 0.13 | 0.09859 | – | – | – | –
Cc1c(NC(=O)OC[C@@H]2COCCN2)cn2ncnc(Nc3ccc4c(cnn4Cc4cccc(F)c4)c3)c12 [BMS-599626] | −0.1901 | 0.2776 | 0.4191 | −0.02871 | −0.07697 | – | – | – | DTIO Corr test [1, 12]: −0.02871; DTIO Corr train [1, 13]: −0.07697
COc1ccc([C@H]2CNC(=O)C2)cc1OC1CCCC1 [rolipram-S(+)] | −0.03939 | −0.06383 | −0.06426 | – | – | – | – | – | DTIO Corr test [1, 5]: −0.07222; DTIO Corr train [1, 6]: −0.1043
O=C1[C@H](Cc2ccc(O)cc2)N2C(=O)CCN(C(=O)NCc3ccccc3)[C@H]2CN1Cc1cccc2ccccc12 [ICG-001] | 0.1415 | −0.2223 | 0.01929 | – | – | – | – | – | DTIO Corr test ([1]; correlation of PRISM compound sensitivity with DTIO; test cell set (188 cell lines)): 0.1635; DTIO Corr train ([1]; correlation of PRISM compound sensitivity with DTIO; training cell set (371 cell lines)): 0.1783; DTIO Corr test [1, 18]: 0.1635; DTIO Corr train [1, 19]: 0.1783
CC(C)(O)CC(=O)NCCn1ccc2ncnc(Nc3ccc(Oc4cccc(C(F)(F)F)c4)c(Cl)c3)c21 [TAK-285] | −0.1598 | 0.2221 | 0.1785 | – | – | – | – | – | DTIO Corr test [1, 5]: −0.06872; DTIO Corr train [1, 6]: −0.07158; DTIO Corr test [1, 18]: −0.06872; DTIO Corr train [1, 19]: −0.07158
CN[C@@H](C)[C@H]1[C@H](O)C[C@@]2(C)[C@@H]3CC[C@H]4C(C)(C)[C@@H](NC)CC[C@@]45C[C@@]35CC[C@]12C [cyclovirobuxin-d] | – | – | – | 0.02667 | 0.06721 | 0.03318 | −0.04158 | 0.04619 | –
C[C@@H]1NC(C)(C)CO[C@@]1(O)c1cccc(Cl)c1 [K13394247] | – | – | – | – | – | – | – | – | DTIO Corr test [1, 3]: −0.04236; DTIO Corr train [1, 4]: 0.0598; TNBCType test ([2]; classification of association of compound sensitivity with IM, MSL and M cell line classes, test data set): MSL
OCCN1CCN(CC/C=C2/c3ccccc3Sc3ccc(C(F)(F)F)cc32)CC1 [flupentixol] | −0.05449 | 0.1086 | 0.1536 | – | – | – | – | – | DTIO Corr test [1, 5]: −0.04775; DTIO Corr train [1, 6]: −0.1041
CCCN(CCC)[C@@H]1CCc2c(OC)cccc2[C@@H]1C [UH-232-(+)] | −0.1006 | 0.08495 | 0.1169 | – | – | – | – | – | DTIO Corr test [1, 5]: −0.1146; DTIO Corr train [1, 6]: −0.08225
